In ChEMBL document CHEMBL4715815, “Design, synthesis and biological evaluation of 7H-pyrrolo[2,3-d]pyrimidin-4-amine derivatives as selective Btk inhibitors with improved pharmacokinetic properties for the treatment of rheumatoid arthritis” (Eur J Med Chem, 2018) one finds solubility, IC50 and Activity data, which are given here for 17 compounds.

Series [1] is described as follows: Aqueous solubility of compound at 1 mg. The note with it: aqueous medium.
The subject of a further series is HEK293. Kind of series: Cytotoxicity against human HEK293 cells assessed as reduction in cell viability incubated for 72 hrs by MTT assay. The format is ADME, cell-based. The note with it: HEK293, 72 h. (In general: Tetrazolium dyes change colour on reduction, which living cells bring about.)
The test system of the next series is THP-1. Kind of series: Cytotoxicity against human THP-1 cells assessed as reduction in cell viability incubated for 72 hrs by MTT assay. The format is ADME, cell-based. The note with it: THP-1, 72 h.
The subject of another series is L02. The series is described as follows: Cytotoxicity against human L02 cells assessed as reduction in cell viability incubated for 72 hrs by MTT assay. The format is ADME, cell-based. The conditions noted are these: L02, 72 h.
Series [2] deals with Tyrosine-protein kinase BTK (Homo sapiens, UniProt Q06187). Kind of series: Inhibition of BTK (unknown origin) by caliper mobility shift assay.
Another series deals with Mus musculus. Kind of series: Antiarthritic activity in DBA/1J mouse model of collagen-induced arthritis at 20 mg/kg, po administered for 30 days and measured on day 30. The format is functional, organism-based. The note with it: time 30.0 day.
The nature of series [3]: Inhibition of recombinant human PI3K using PIP2 as substrate incubate for 15 mins by LANCE assay. For orientation: Time-resolved FRET reads energy transfer from a long-lived donor to a nearby acceptor.

Values after ≈ are worked out from the molar mass of the structure shown. Active and inactive are the calls of the source. The calls are words filed in the database; no cut-off is given here. A value given as a limit tells only on which side of the number the result lay.

Chain of Tyrosine-protein kinase BTK (Q06187 whole entry): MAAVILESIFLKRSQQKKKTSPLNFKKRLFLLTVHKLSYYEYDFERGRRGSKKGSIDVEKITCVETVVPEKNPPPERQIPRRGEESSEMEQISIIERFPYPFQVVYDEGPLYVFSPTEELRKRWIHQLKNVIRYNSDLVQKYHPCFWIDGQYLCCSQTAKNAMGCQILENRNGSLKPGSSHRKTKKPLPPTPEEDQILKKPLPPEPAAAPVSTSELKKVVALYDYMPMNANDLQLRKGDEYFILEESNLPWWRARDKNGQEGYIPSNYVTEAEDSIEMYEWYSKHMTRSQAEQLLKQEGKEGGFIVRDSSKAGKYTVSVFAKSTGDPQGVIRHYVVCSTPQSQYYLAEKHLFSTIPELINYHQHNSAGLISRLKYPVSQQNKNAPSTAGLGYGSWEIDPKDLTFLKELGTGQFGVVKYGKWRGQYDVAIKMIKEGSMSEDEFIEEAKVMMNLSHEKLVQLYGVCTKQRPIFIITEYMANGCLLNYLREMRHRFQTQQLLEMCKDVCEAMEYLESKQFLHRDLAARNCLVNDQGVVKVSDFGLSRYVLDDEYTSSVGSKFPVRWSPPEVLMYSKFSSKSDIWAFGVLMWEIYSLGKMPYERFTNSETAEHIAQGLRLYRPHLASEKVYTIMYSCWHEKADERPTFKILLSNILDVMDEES

What is called solubility is how much of the substance goes into solution per volume. Read a low solubility as a poorly soluble substance. In general, IC50 refers to the midpoint of a concentration-inhibition curve. With `C=CC(=O)N1CCCC(Cn2cc(-c3ccc(Oc4ccccc4)cc3)c3c(N)ncnc32)C1` (single isomer, unassigned; form 2), the solubility in series [1] was below 10 µg/mL. The IC50 worked out at 1.3 µM in the series with HEK293, 10.7 µM with THP-1 and 14.2 µM in the series on L02.

With `C=CC(=O)N1CCC(Cn2nc(-c3ccc(Oc4ccccc4)cc3)c3c(N)ncnc32)CC1`, in series [1], the solubility was below 10 µg/mL. Further, the IC50 turned out to be 11.2 µM in the series with HEK293, 15.7 µM in the series with THP-1 and 10.9 µM in the series on L02.

Take `C=CS(=O)(=O)N1CCC(Cn2cc(-c3ccc4c(c3)OCO4)c3c(N)ncnc32)CC1`: in series [1], the concentration in solution (solubility) was 100 µg/mL (≈ 226 µM). In addition, the 50% inhibitory concentration (IC50) in the series with HEK293 turned out to be 2.5 µM; in the series on THP-1 it was 3.7 µM; with L02, 3.2 µM.

`C=CC(=O)N1CCC(CCn2cc(-c3ccc(Oc4ccccc4)cc3)c3c(N)ncnc32)CC1` yielded a solubility in series [1] below 10 µg/mL. Moreover, the IC50 with HEK293 was found to be 10.2 µM; with THP-1, 18.9 µM; in the series on L02, 15.2 µM.

Take `C=CC(=O)N1CCCC(Cn2cc(-c3ccc(Oc4ccccc4)cc3)c3c(N)ncnc32)C1` (single isomer, unassigned; form 1): in series [1], the solubility is below 10 µg/mL. The IC50 was determined as 2.9 µM in the series with HEK293, 8.8 µM with THP-1 and 11.7 µM with L02.

On to `C=CS(=O)(=O)N1CCC(Cn2nc(-c3ccc(Oc4ccccc4)cc3)c3c(N)ncnc32)CC1`, for which the solubility in series [1] is below 10 µg/mL. Besides, the IC50 with HEK293 amounted to 1.6 µM; in the series on THP-1, 18.3 µM; in the series with L02, 19.1 µM.

For the compound `C=CC(=O)N1CCC(Cn2cc(-c3ccc(Oc4ccccc4)cc3)c3c(N)ncnc32)CC1`, the IC50 is 0.00609 µM in series [2], 13.3 µM with HEK293, 16.7 µM with THP-1 and 16 µM in the series with L02. Besides, the solubility in series [1] is below 10 µg/mL.

For the compound `CN(C)C/C=C/C(=O)N1CCC(Cn2cc(-c3ccc(Oc4ccccc4)cc3)c3c(N)ncnc32)CC1`, the solubility in series [1] is below 10 µg/mL. Moreover, the IC50 came to 4.8 µM with HEK293, 3.2 µM with THP-1 and 6.6 µM in the series with L02.

For `C=CC(=O)N1CCC(Cn2nc(-c3ccc4c(c3)OCO4)c3c(N)ncnc32)CC1`, in series [1], the concentration in solution (solubility) was 100 µg/mL (≈ 246 µM).

The compound `C=CS(=O)(=O)N1CCC(Cn2nc(-c3ccc4c(c3)OCO4)c3c(N)ncnc32)CC1` yielded a solubility in series [1] of 100 µg/mL (≈ 226 µM). Besides, the IC50 with HEK293 is 2.8 µM; in the series on THP-1 it was 14.4 µM; with L02 it was 10.1 µM.

Regarding `C=CS(=O)(=O)N1CCC(Cn2cc(-c3ccc(Oc4ccccc4)cc3)c3c(N)ncnc32)CC1`, the solubility in series [1] is below 10 µg/mL. For the same compound, the IC50 in the series on HEK293 came to 2.7 µM; in the series with THP-1, 3.3 µM; in the series on L02 it was 3.2 µM.

`C=CC(=O)N1CCC[C@@H](n2nc(-c3ccc(Oc4ccccc4)cc3)c3c(N)ncnc32)C1` [IBRUTINIB]: the solubility in series [1] is below 10 µg/mL. Moreover, the IC50 in the series with HEK293 was 19.3 µM; in the series on THP-1 it was 20.1 µM; in the series with L02, 17.4 µM; in series [3], above 10 µM. In the series with Mus musculus, the result was Active.

In series [1], `C=CC(=O)N1CCCC(Cn2cc(-c3ccc4c(c3)OCO4)c3c(N)ncnc32)C1` (single isomer, unassigned; form 1) had a solubility of 100 µg/mL (≈ 247 µM).

For the compound `CN(C)C/C=C/C(=O)N1CCC(Cn2cc(-c3ccc4c(c3)OCO4)c3c(N)ncnc32)CC1`, the solubility in series [1] was below 100 µg/mL.

In turn, `C=CC(=O)N1CCC(CCn2cc(-c3ccc4c(c3)OCO4)c3c(N)ncnc32)CC1` had a solubility in series [1] below 100 µg/mL.

In the case of `C=CC(=O)N1CCC(Cn2cc(-c3ccc(OCc4ccccc4)cc3)c3c(N)ncnc32)CC1`, the IC50 in series [2] is 0.077 µM. In series [1], this compound registered a solubility below 10 µg/mL.

`C=CC(=O)N1CCCC(Cn2cc(-c3ccc4c(c3)OCO4)c3c(N)ncnc32)C1` (single isomer, unassigned; form 2): the solubility in series [1] is 100 µg/mL (≈ 247 µM).
